One assay deals with BT20 xenografts. Briefly: BT20 xenografts from cells pretreated before inoculation. Particulars: BT20 cells pretreated for 48 hours prior to inoculation in nude mice; FIG. 8A. In kind it is in vivo. An excerpt:
FIGS. 8A-8D. SUMO Inhibitors Repressed Outgrowth of Xenografts. FIG. 8A. […] FIG. 8B. Tumor-free survival of nude mice (n=5 per group) inoculated with BT20 cells with animals gavaged with AA vs. vehicle. FIG. 8C. IOWA-1T cells were pre-treated with anacardic acid (AA) or vehicle and mice were followed until requiring euthanasia due to tumor size (Overall Survival). […] FIG. 8D. Nude mice were inoculated with 1×10^6, 5×10^5, or 2.5×10^5 IOWA-1T cells and animals were gavaged with either vehicle or AA; vehicle-gavaged mice developed tumors in 5, 10 and 12 days, respectively.
To address the effects of GA and AA on tumor initiation, BT20 cells were pretreated with GA or AA compared to vehicle prior to inoculation of xenografts in nude mice. As noted in FIG. 8A, pretreatment of the cells repressed the formation of tumor xenografts, whereas, vehicle treated cells formed xenografts with a median time of 8 weeks. […] We created a breast carcinoma cell line (IOWA-1T) from the basal tumor-derived cells used in FIG. 6A. The IOWA-1T cell line rapidly forms locally advanced tumors in nude mice. Identical experiments using the IOWA-1T basal cell line confirmed that either pre-treating the cancer cells or gavaging animals with AA repressed tumor initiation of xenografts (FIGS. 8C and 8D). […]

Another assay concerns BT-20 cells. Briefly: CD44 Western blot and CD44+/CD24-/low FACS in BT-20 cells. In kind it is cell-based, human. Particulars: for ability to repress CD44 expression with knockdown of TFAP2A: BT20 cells, TFAP2A siRNA, Western blot FIG. 6C; for CD44+/CD24-/low population by FACS analysis / CD44 expression by Western blot: BT-20 cells, FIG. 6A, 10 μM, 2-4 days. Here is the method: (§1) The human breast cancer cell lines (MCF-7, SKBR-3, BT-20, BT-549, MCF-10A) were obtained from American Type Culture Collection. sKD-C cells were subcloned from parental MCF-7 cells with stable knockdown of TFAP2C as described (Cyr et al., 2014). ER<-positive tumors and the basal cancer tumor were obtained from surgical resection specimens. Cell suspensions were prepared with gentle collagenase/hyaluronidase (Stemcells) (Ponti et al., 2005). A new cell line was established from the basal tumor cells, called IOWA-1T (manuscript in preparation).
(§2) Western blots were performed as previously described (Cyr et al., 2014; Kulak et al., 2013). For immunoprecipitations anti-TFAP2A, anti-GFP antibody (Life Technologies) or IgG (#sc-2025, Santa Cruz Biotechnology) were cross-linked with Dynabeads protein A (Life Technologies). MCF7 protein was incubated with Dynabeads protein A-Abs complex, protein complexes were washed with DPBS (Gibco) with 0.01% Tween (Research Products International Corp.), and eluted with SDS loading buffer.
(§3) Cells were plated ([…]/10 cm2) and treated with 10 μM gingolic or anacardic acid (Sigma) for 2-4 days and collected for qPCR, Western blot and FACS analysis.
(§4) FACS analysis was performed as previously described (Roederer and Hardy, 2001).
A general note: A western blot detects proteins with antibodies after separation by electrophoresis.

The next assay has as its system MCF-10A cells. Briefly: CD44 expression and stem cell markers in normal breast cell line MCF-10A. Particulars: MCF-10A normal breast cell line. It is filed as cell-based, human. Here is the method: as §1, §2, §3, §4

As to `CCCCCCCCCCCCCCCc1cccc(O)c1C(=O)O` [AA, Anacardic acid (C15:0)], the “formation of tumor xenografts (tumor free survival)” value in the assay with BT20 xenografts is “repressed”. Moreover, in the assay with BT-20 cells, the “ability to repress CD44 expression with knockdown of TFAP2A” value is “completely eliminated”, the “CD44+/CD24-/low population by FACS analysis” value is recorded as “significantly reduced” and the “CD44 expression by Western blot” value is recorded as “inhibited”. In the assay with MCF-10A cells, the CD44 expression result is reported as “no effect” and the “percentage of cells expressing stem cell markers” value was “no effect”.
As for `CCCCCC/C=C\CCCCCCCc1cccc(O)c1C(=O)O` [GA, (Z)-6-(Pentadec-8-enyl)-2-hydroxybenzoic acid], the “formation of tumor xenografts (tumor free survival)” value in the assay with BT20 xenografts is recorded as “repressed”. In addition, in the assay on BT-20 cells, the “ability to repress CD44 expression with knockdown of TFAP2A” value is listed as “completely eliminated”, the “CD44+/CD24-/low population by FACS analysis” value is recorded as “significantly reduced” and the “CD44 expression by Western blot” value is listed as “inhibited”. For the same molecule, in the assay with MCF-10A cells, the CD44 expression result is “no effect” and the “percentage of cells expressing stem cell markers” value is recorded as “no effect”.

The values are drawn from patent US20160101076A1, “Use of Sumoylation Inhibitors for Treating Cancer” (priority 2013, published 2016).
